According to US7381521B2, “Anti-pathogenic composition useful in blood preservation” (Altachem Pharma Ltd., priority 2001, dated 2008):

How the values were obtained:
E. coli ATCC 11229 = assay: Test 2 (DGHM), growth inhibition by dilutions, 72 hours at 37° C.; format: cell-based, Escherichia coli
Procedure: Another test was carried out a basis of the following solutions • 100 ml of a 0.1% solution of chlorohexidine digluconate (pH 6); and • 100 ml of a 0.1% solution of Bardac22®.
The activity of these solutions, alone or in combination, was more particularly tested in respect of Staphylococcus aureus ATCC 6538, Escherichia coli ATCC 11229 and Candida albicans ATCC 10231.
The tests were conducted in accordance with the procedure described in Chapter I/2.1 and 2.2 of Tichtlinien für die Prüfung und Bewertung chemischer Desinfektionsverfahren der DGHM/Guidelines for Testing and Evaluating Chemical Disinfection Processes of DGHM as at 1.1, 1981.
Tables IX, X and XI respectively illustrate the bactericidal and fungicidal activity of a 0.1% aqueous solution of chlorohexidine digluconate, a 0.1% aqueous solution of Bardac22® and a mixture of equal parts of both compounds. The procedures of which these Tables illustrate the results comprise incubation of 72 hours at 37° C. and the use of the following inactivating substances as controls: • A: 3% Tween®80+0.3% lecithin+0.1% cysteine • B: 3% Tween®80+3% saponin+0.1% cysteine+0.1% histidine; • C: 3% Tween®80+0.3% lecithin+0.1% histidine+0.5% sodium thiosulphate.
In these Tables, the sign “+” indicates an increase and the sign “−” denotes the absence of growth.

HIV-1 virus = assay: Infectivity of HIV-1 treated 10 minutes with product for normal human T lymphocytes (reverse transcriptase activity, ATI, in culture supernatants); format: cell-based
Description: Infectivity is studied on T lymphocytes obtained from peripheral blood of a healthy human donor and separated on a Ficoll gradient.
The lymphocytes are stimulated for 3 days by phytohaemaglutinin P (PHA P) diluted to 1/500 and cultivated in a complete medium. The blastic cells T are infected by the virus, treated or not, in order to show up residual infectious strength.
The viruses obtained from a supernatant culture of an HIV-1 infected CEM line. This T lymphoblastoid line infected by HIV-1 is used for viral production.
The titer of the supernatant substances used is evaluated after quantitative analysis of the reverse transcriptase activity (ATI) of the virus.
In the following tests, a supernatant substance was used, the ATI of which was 1.8×10^6 cpm/ml.
Preparation of the viral solution: several tubes containing 1 ml viral supernatant, ATI 1.8×10^6 cmp/ml are, concentrated by ultracentrifugation. The resulting virus residues are taken up either by each of the different dilutions of QACs produced in sterile bidistilled water or by water (untreated control virus).
Treatment of viral preparations: the concentrated viral preparations are all treated according to the following procedure:
Treated virus samples: the virus residues concentrated by ultracentrifugation are resuspended in 100, μl of each of the concentrations in terms of products (QACs) studied and incubated for 10 minutes.
Control viral sample: untreated control virus: the product is replaced by 100 μl of sterile bidistilled water.
Following this 10 minute incubation time, the virus present in each sample is rinsed and then reconcentrated by addition of 12 ml of RPMI 1640 medium and ultracentrifugation. The virus residues are then taken up in 1 ml of complete medium and used for infecting normal human T lymphocytes.
Measurement of the infectivity of the samples: 4×10^6 normal human T lymphocytes are infected with each of the treated viral preparations or controls mentioned hereinabove. Infection of the T cells is carried out according to a previously described method (F. Barre Sinoussi et al. Science, 1983, 220:868-871): to sum up, 4×10^6 cells in suspension in 1 ml of complete medium are incubated with 1 ml of each of the treated vial preparations or controls for 1 hour at 37° C.
After two washings using several millilitres of culture medium, the cellular suspensions are adjusted to the concentration of 1×10^6 cells per ml. The day of the infection is regarded as day 0.
Viral production during the course of time is determined by measuring the reverse transcriptase activity present in the culture supernatants using the procedure described below.
This quantitative analysis makes it possible to evaluate the presence of noninactivated residual virus in the staring sample. It is carried out on a basis of 1 ml of culture supernatant taken every 2 or 3 days and ultracentrifuged.
The enzymatic activities are measured in 50 μl of a reaction mixture containing 50 mM Tris pH 7.8, 20 mM MgCl2, 20 mM KCl, 2 mM dithiotreitol, 0.25 OD/ml, oligo dT, 0.25 OD/ml poly rA, 0.1% Triton×100 and 2.5 μCi 3H DTTP.
After incubation for 1 hour at 37° C., the reaction is stopped by the addition of 10 μl of 0.2 M EDTA and the samples are deposited on DE81 membranes.
After several washings using 5% Na2HPO4, then by distilled water, the membranes are dried and the radioactivity measured by means of a p scintillation counter (PACKARD).

For [H]/N=C(\N/C(=N/[H])NCCCCCCNC(=N)NC(=N)Nc1ccc(Cl)cc1)Nc1ccc(Cl)cc1 [Chlorhexidine, chlorohexidine digluconate, reference compound], the “concentration of active substance inhibiting growth” value (E. coli ATCC 11229) was 0.0005%, the “dilution of the 0.1% solution inhibiting growth” value (E. coli ATCC 11229) was 0.5% and the growth (E. coli ATCC 11229; 0.00625% vol/vol, inactivator A) was “+”. For the same molecule, the growth (E. coli ATCC 11229; 0.00625% vol/vol, inactivator B) was “+”, the growth (E. coli ATCC 11229; 0.00625% vol/vol, inactivator C) was “+” and the growth (E. coli ATCC 11229; 0.00625% vol/vol, no inactivator) was “+”. For the same molecule, the growth (E. coli ATCC 11229; 0.0125% vol/vol, inactivator A) was “+”, the growth (E. coli ATCC 11229; 0.0125% vol/vol, inactivator B) was “+” and the growth (E. coli ATCC 11229; 0.0125% vol/vol, inactivator C) was “+”. The growth (E. coli ATCC 11229; 0.0125% vol/vol, no inactivator) was “+”, the growth (E. coli ATCC 11229; 0.025% vol/vol, inactivator A) was “+” and the growth (E. coli ATCC 11229; 0.025% vol/vol, inactivator B) was “+”. The growth (E. coli ATCC 11229; 0.025% vol/vol, inactivator C) was “+”, the growth (E. coli ATCC 11229; 0.025% vol/vol, no inactivator) was “+” and the growth (E. coli ATCC 11229; 0.05% vol/vol, inactivator A) was “+”. For the same molecule, the growth (E. coli ATCC 11229; 0.05% vol/vol, inactivator B) was “+”, the growth (E. coli ATCC 11229; 0.05% vol/vol, inactivator C) was “+” and the growth (E. coli ATCC 11229; 0.05% vol/vol, no inactivator) was “+”. For the same molecule, the growth (E. coli ATCC 11229; 0.1% vol/vol, inactivator A) was “+”, the growth (E. coli ATCC 11229; 0.1% vol/vol, inactivator B) was “+” and the growth (E. coli ATCC 11229; 0.1% vol/vol, inactivator C) was “+”. The growth (E. coli ATCC 11229; 0.1% vol/vol, no inactivator) was “+”, the growth (E. coli ATCC 11229; 0.5% vol/vol, inactivator A) was “+” and the growth (E. coli ATCC 11229; 0.5% vol/vol, inactivator B) was “+”. For the same molecule, the growth (E. coli ATCC 11229; 0.5% vol/vol, inactivator C) was “+”, the growth (E. coli ATCC 11229; 0.5% vol/vol, no inactivator) was “−” and the growth (E. coli ATCC 11229; 1.0% vol/vol, inactivator A) was “+”. For the same molecule, the growth (E. coli ATCC 11229; 1.0% vol/vol, inactivator B) was “+”, the growth (E. coli ATCC 11229; 1.0% vol/vol, inactivator C) was “+” and the growth (E. coli ATCC 11229; 1.0% vol/vol, no inactivator) was “−”. The ATI in supernatant (HIV-1 virus; Chlorhexidine 0.005%, J3) was 360 cpm/ml, the ATI in supernatant (HIV-1 virus; Chlorhexidine 0.005%, J10) was 580 cpm/ml and the ATI in supernatant (HIV-1 virus; Chlorhexidine 0.005%, J30) was 720 cpm/ml. The ATI in supernatant (HIV-1 virus; Chlorhexidine 0.01%, J10) was 200 cpm/ml, the ATI in supernatant (HIV-1 virus; Chlorhexidine 0.01%, J13) was 250 cpm/ml and the ATI in supernatant (HIV-1 virus; Chlorhexidine 0.01%, J17) was 230 cpm/ml. The ATI in supernatant (HIV-1 virus; Chlorhexidine 0.01%, J27) was 420 cpm/ml.
